Experimental data as given in patent publication EP0367974A1, “Cis-complexes with a 1,3-diaminopropane derivative as a ligand, methods for their preparation and pharmaceutical agents containing such complexes” (BEHRINGWERKE Aktiengesellschaft, priority 1988, dated 1990).

Legend:
L1210-Leukämiezellen = assay: Colony formation of L1210 leukaemia cells in soft agar; format: cell-based, Maus; details: colony number vs untreated control, 7 days at 37° C; 1 h incubation or continuous exposure not specified
Source text: Die Bestimmung der zytostatischen Wirksamkeit der hier beschriebenen Verbindungen erfolgte an L1210-Leukämiezellen der Maus. Im einzelnen wurden folgende Testsysteme verwendet:
Diese Methode dient zum Nachweis eines Einflusses der Testsubstanzen auf das Wachstumsverhalten der Zellen über mehrere Generationen (bei einer Zellzykluszeit von 10 - 12 Stunden werden in der Testzeit von 7 Tagen etwa 14 aufeinanderfolgende Generationen beobachtet). Zytostatisch wirksame Substanzen bewirken in diesem Test eine Reduktion der zu beobachtenden Koloniezahl gegenüber einer unbehandelten Kontrolle. Im einzelnen wird der Test wie folgt durchgeführt: Leukämiezellen werden mit unterschiedlichen Konzentrationen von Testsubstanz 1 Stunde bei 37° C inkubiert.
Anschließend werden die Zellen zweimal mit McCoy5A-Medium gewaschen und schließlich in Petrischalen nach Zusatz von 0.3 % Agar ausgegossen (500 Zellen/Platte). Kontrollen werden lediglich mit frischem Medium inkubiert. Anstelle der einstündigen Inkubation werden in manchen Fällen unterschiedliche Konzentrationen und Testsubstanz der oberen Agarschicht zugemischt, um so eine kontinuierliche Exposition der Zellen über die gesamte Inkubationszeit zu erreichen. Nach Erstarren des Agars werden die Platten im Brutschrank 7 Tage bei 37° C inkubiert ( 5 Vol-% CO₂, 95 % relative Luftfeuch tigkeit). Anschließend wird die Anzahl der entstandenen Kolonien mit einem Durchmesser von mehr als 60 µ gezählt. Die Ergebnisse werden angegeben als Koloniezahl in behandelten Agarplatten, in Prozent der unbehandelten Kontrolle. Aus der so erhalten Dosiswirkungskurve wird die IC₅₀ als Maß für die Wirksamkeit der Substanz ermittelt.

L1210 Leukämie der Maus = assay: In vivo efficacy of the platinum complexes against L1210 leukaemia of the mouse; parameters: opt. Dose: unit not given here; details: for opt. Dose: dose with the greatest antitumoural effect, schedule 3 x i.p./i.p.; for T/C % L1210: treatment schedule 3 x i.p./i.p., mean survival time vs control at optimal dose; for LTS (Long Term Survivor): animals alive on day 60 (cured) per group of 6, at optimal dose, 3 x i.p./i.p.
Protocol: Ascitesflüssigkeit wird unter sterilen Bedingungen DBA2 Mäusen (weiblich, 18 - 20 g) 7 Tage nach Implantation entnommen. Der Ascites wird dreimal mit PBS gewaschen, gezählt und auf eine Zellzahl von 10⁶ in 0.2 ml PBS eingestellt. 10⁶ Zellen, suspendiert in 0.2 ml PBS, werden anschlie-ßend DBF1 Mäusen (weiblich, 18 - 20 g) intraperitoneal injiziert. 6 Tiere pro Gruppe werden für jede Substanz konzentration bzw. als Kontrolle eingesetzt.
• a) Die Tiere werden am Tag 1 und 5 nach Injektion der Testsubstanz gewogen.
Die Dosis, die den größten antitumoralen Effekt (optimale Dosierung) sowie jeweils eine Dosisstufe oberhalb und unterhalb dieser Dosis wurden angegeben. Tiere, die am Tag 60 des Experimentes noch leben, werden als geheilt zusätzlich getrennt aufgeführt.

NMRI-Mäusen = assay: Acute toxicity in mice (LD50, Litchfield-Wilcoxon); format: in vivo, Maus; details: 3 x i.p.; survivors counted day 14 after last injection
Protocol: Zur Ermittlung der akuten Toxizität werden NMRI-Mäusen am Tag 0 unterschiedliche Dosen der Testsubstanz gelöst in 0.5 ml 5 %iger Glucose-Lösung, intraperitoneal injiziert. Kontrollgruppen erhalten lediglich 0.5 ml 5 %ige Glucose-Lösung. Pro Konzentration der Testsubstanz werden 5 Mäuse verwendet. Am Tag 14 nach der letzten Injektion wird die Zahl der überlebenden Mäuse ermittelt und daraus nach der Lichtfield Wilcoxon Methode die LD5, LD50 und LD95 ermittelt.

| SMILES | IC₅₀ (L1210-Leukämiezellen) | opt. Dose (L1210 Leukämie der Maus) | T/C % L1210 (L1210 Leukämie der Maus) | LD₅₀ (NMRI-Mäusen) | LTS (Long Term Survivor) (L1210 Leukämie der Maus) |
| --- | --- | --- | --- | --- | --- |
| N.N.[Cl][Pt][Cl] [Cisplatin, reference compound] | 0.04 µg/mL | 4 | 157% | – | – |
| CCC(CN)(CN)COC.O=C1[O][Pt][O]C(=O)C12CC2 [Verbindung 1, 1,3-Diamino-2-ethyl-2-methoxymethyl-propan-N,N′-platin(II)-O,O′-cyclopropan-1,1-dicarboxylat] | 5.0 µg/mL | 50 | 450% | 90 to 120 mg/kg | 6/6 |
| COCC(C)(CN)CN.O=C([O-])C1(C(=O)[O-])CC1.[Pt+2] [Verbindung 2, 1,3-Diamino-2-methoxymethyl-2-methyl-propan-N,N′-platin(II)-O,O′-cyclopropan-1,1-dicarboxylat] | 4.2 µg/mL | – | – | – | – |
| CCC(CN)(CN)COC.COC1C(=O)[O][Pt][O]C1=O [Verbindung 9, 1,3-Diamino-2-ethyl-2-methoxymethyl-propan-N,N′-platin(II)-O,O′-2-methoxymalonat] | 2.35 µg/mL | 16 | 306% | 60 mg/kg | 3/6 |
| CCC(CN)(CN)COC.O=C1C[O][Pt][O]1 [Verbindung 16, 1,3-Diamino-2-ethyl-2-methoxymethyl-propan-N,N′-platin(II)-O,O′-2-hydroxy-acetat] | 1.2 µg/mL | 15.8 | 361% | – | 4/6 |
| COCC(C)(CN)CN.O=C1C[O][Pt][O]1 [Verbindung 17, 1,3-Diamino-2-methoxymethyl-2-methyl-propan-N,N′-platin(II)-O,O′-2-hydroxy-acetat] | 1.8 µg/mL | 9.5 | 225% | – | 1/6 |
| CCC(CN)(CN)COC.CCC1(C)[O][Pt][O]C1=O [Verbindung 22, 1,3-Diamino-2-ethyl-2-methoxymethyl-propan-N,N′-platin(II)-O,O′-(2-hydroxy-2-methyl)-butyrat] | 2.9 µg/mL | – | – | 90 to 180 mg/kg | – |
